Converted amounts (≈) assume the structure as drawn.
Tests used:
[1] = test system: Leishmania donovani; test: Antileishmanial activity against Leishmania donovani intracellular amastigotes assessed as parasite growth inhibition; format: functional, organism-based
[2] = test system: Leishmania major; test: Antileishmanial activity against Leishmania major IR-173 promastigotes assessed as inhibition of parasite viability incubated for 72 hrs by resazurin/alamar blue fluorometric assay; format: functional
[3] = biological target: Arginase (Leishmania amazonensis, UniProt O96394); test: Inhibition of Leishmania amazonensis Arginase expressed in Escherichia coli BL21 (DE3)
[4] = test system: Leishmania donovani; test: Antileishmanial activity against Leishmania donovani promastigotes assessed as reduction in parasite growth incubated for 72 hrs by MTT assay; format: functional, organism-based
[5] = test system: Leishmania infantum; test: Antileishmanial activity against Leishmania infantum MCAN/ES/89/IPZ229/1/89 axenic amastigotes assessed as reduction in parasite viability treated for 24 hrs by PI staining based flow cytometry; format: functional, organism-based; settings: MCAN/ES/89/IPZ229/1/89, 24 h
[6] = Inhibition of recombinant Leishmania mexicana Trypanothione reductase
[7] = test system: Leishmania major; test: Antileishmanial activity against Leishmania major promastigotes incubated for 24 hrs measured by alamar blue staining based fluorescence analysis; format: functional, organism-based
[8] = test system: Leishmania amazonensis; test: Antileishmanial activity against Leishmania amazonensis amastigotes assessed as reduction in parasite growth measured after 24 hrs by MTT assay; format: functional, organism-based
[9] = test system: Leishmania amazonensis; test: Antileishmanial activity against Leishmania amazonensis MHOM/BR/71973/M2269 promastigotes assessed as reduction in parasite growth incubated for 24 hrs by PI staining based flow cytometry analysis; format: functional, organism-based; settings: MHOM/BR/71973/M2269, 24 h
[10] = test system: Leishmania infantum; test: Antileishmanial activity against Leishmania infantum MHOM/BR/1972/BH46 promastigotes assessed as reduction in parasite growth incubated for 24 hrs by PI staining based flow cytometry analysis; format: functional, organism-based; settings: MHOM/BR/1972/BH46, 24 h
[11] = test system: Leishmania amazonensis; test: Antileishmanial activity against Leishmania amazonensis promastigotes assessed as inhibition of parasite growth measured after 72 hrs by alamar blue assay; format: functional, organism-based
[12] = test system: Leishmania infantum; test: Antileishmanial activity against Leishmania infantum MCAN/ES/89/IPZ229/1/89 promastigote measured after 72 hrs by MTT assay; format: functional, organism-based; settings: MCAN/ES/89/IPZ229/1/89, 72 h
[13] = Antileishmanial activity against Leishmania donovani MHOM/IN/95/9515 promastigotes assessed as inhibition of parasite viability incubated for 72 hrs by resazurin/alamar blue fluorometric assay; format: functional
[14] = test system: Leishmania donovani; test: Antileishmanial activity against Leishmania donovani amastigotes; format: functional, organism-based
[15] = test system: Leishmania donovani; test: Antileishmanial activity against Leishmania donovani promastigotes; format: functional, organism-based
[16] = test system: Leishmania donovani; test: Antileishmanial activity against Leishmania donovani promastigotes at 50 uM; format: functional
[17] = test system: Leishmania donovani; test: Antileishmanial activity against Leishmania donovani promastigotes at 25 uM; format: functional
[18] = test system: Leishmania donovani; test: Immunosuppressive activity in Leishmania donovani assessed as inhibition of PGE2 production; format: functional, organism-based

CCCCCCCCNCc1ccc2c(c1)C(=O)CC(C)(C)O2
IC50 [1]: 24.6 µM

O=C(Cn1cnc2ccccc2c1=O)N1CCC2(CC1)OCCO2
Activity [2]: 35%

O=C(CCc1ccc(O)c(O)c1)O[C@H](Cc1ccc(O)cc1)C(=O)O
IC50 [3]: 5.5 µM

CCOC(=O)C1=CNC(=S)NC1c1ccc(C)cc1 (stereo not drawn)
IC50 [4]: 28.3 µg/mL (≈ 102 µM)

Cn1c(=O)c2c(c3ccccc31)OC(C)(C)[C@H]1CC[C@@](C)(O)[C@H](Cl)[C@H]21
IC50 [5]: > 6.25 µM

C[C@H]1[C@H](C)CC[C@]2(C(=O)O)CC[C@]3(C)C(=CC[C@@H]4[C@@]5(C)CC[C@H](O)C(C)(C)[C@@H]5CC[C@]43C)[C@H]12 [URSOLIC ACID]
IC50 [6]: 7.03 µM

CCOC(=O)C1=C(C)NC(C)=C(C(=O)OCC)C1c1cccc(Cl)c1
EC50 [7]: 15.5 µM

CCCc1cc(OC)c2oc(=O)c(C(=O)c3ccc([N+](=O)[O-])cc3)cc2c1
IC50 [8]: 18 µM
IC50 [9]: 26.7 µM
IC50 [10]: 3.53 µM
IC50 [11]: 18 µM
IC50 [12]: 6.8 µM

O=C(Cn1cnc2cc(Cl)ccc2c1=O)n1cnc2cc(Cl)ccc2c1=O
Activity [13]: 29%

O=C1/C(=C/c2ccc(O)c(O)c2)Oc2cc(O)ccc21 [SULFURETIN]
EC50 [14]: 0.33 µM
EC50 [15]: 4.58 µM

COc1ccc2c(c1)O/C(=C/c1cc(O)cc(O)c1)C2=O
Activity [16]: 108%
Activity [17]: 105%
IC50 [18]: 5.9 µM

From ChEMBL document CHEMBL5532635, “The role of natural anti-parasitic guided development of synthetic drugs for leishmaniasis” (Eur J Med Chem, 2023)
